Measured values: patent US20040028609A1, “Two-dimensionally quantified image method for distinguishing and quantifying over-growing tissue or the like” (priority 2000, published 2004)
Like-named read-outs stand apart in the source and are kept apart here.

Experiments:
[1] = Protocol: After administration of the aforementioned ^90Y into the mouse tail vein the systemic distribution was studied by the following experiments. The animals used were those obtained from the source as used for the BALB/c (body weight 25 g) described in Examples 1 and 2 above. After administration of an aqueous 0.5 μCi (18.5 kBq) ^90YCl citrate solution per male mouse in the tail vein, analysis was conducted over time at 5 time points: at 10 minutes, 1, 6, 24, and 48 hours. The animals were sacrificed under an ether anesthesia, and the whole body autoradiographs were prepared using with the same procedure as that used in Example 1 and Example 2 (FIGS. 7, 8, 9, 10, 11).
tumor (T) = experiment: Effect of ^90Y radiation on mitosis, [2-^14C] thymidine incorporation as marker of DNA replication (macroautoradiography): tumor; assay type: in vivo, BALB/c mice; note: key: −: no effect; ±: Slight inhibition; +: Decrease in function; ++: Definite decrease in function; +++: No incorporation of ^14C marker in DNA replication
[2] = tested on: digestive tract mucosa (m)
Protocol: (§1) ^90YCl at the three levels, 0.5 μCi (18.5 kBq), 2 μCi (74 kBq) or 10 μCi (370 kBq), was injected intravenously into the tail of male BALB/c mice in groups of 6 mice per group (a total of 18 mice). […] The animals were sacrificed one hour later under ether anesthesia, and the macroautoradiographs were prepared as described in Example 1. […] FIG. 12 is a microautoradiograph of the bone marrow, showing the bone marrow from a mouse sacrificed 1 hour after [2-^14C] was administered, which was 48 hours after the ^90Y administration.
(§2) On the sections were placed five sheets of 10 μm thick aluminum foil, and this was brought into contact with IP to generate only the ^90Y image. […] If the image of the two radiation nuclides is to be obtained simultaneously, one can place an industrial X-ray film in contact with said section, followed by five sheets of aluminum foil, and then the IP; these are then stored in a dark box. After about 7 days, the X-ray film is taken out and photographically processed by the usual method to produce the image, while the IP is processed by Fuji BAS2000 for computer processing of the images. This method provides ^14C image on the industrial X-ray film. This method also gives a ^90Y image on the IP.

bone marrow (B) = details: for effect of ^90Y radiation on [2-^14C] thymidine incorporation (suppression of mitosis), B: bone marrow
Protocol: as §1, §2

[3] = tested on: excised jejunum, basal layer of the intestinal tract mucosa; experiment: [2-^14C] thymidine incorporation in excised, cultured jejunum (in vitro system); assay type: cell-based, Wistar rat; details: 5 μCi injected into excised jejunum, cultured 10 minutes at 37° C.
Protocol: Next, the jejunum of a healthy Wistar male rat at seven weeks of age was used. The part of the abdomen was opened under ethyl ether anesthesia, and the jejunum of about 2-4 cm in length was excised. […] Then, the specimen was immediately frozen in liquid nitrogen and sectioned using a microtome to obtain frozen sections. Semi-microautoradiographs were prepared from these sections.

[4] = Fate of intravenously administered [2-^14C] thymidine in rats; assay type: in vivo; details: intravenous
Protocol: Extensive studies by the present inventors led to the discovery that when “thymidine” is intravenously administered to rats, the thymidine administered is utilized only in the S phase of the cell cycle, and more precisely, within 3 minutes after the administration of the thymidine. This observation is based on the findings obtained using a “thymidine” with the “2” carbon position within its structure labeled with ^14C and tracking the fate of the administered thymidine. It was discovered that thymidine not incorporated during the cell division is rapidly metabolized in the liver, leucocytes, and the like and mostly excreted out of the body as carbon dioxide gas. Based on these findings, the present inventors discovered that a thymidine with “2” carbon position labeled with ^14C is an extremely important marker for specifying the frequency of dividing cells in vivo and for localizing its site(s) within the body. It was also discovered that a (1,3-N) thymidine, obtained by attaching a fluorescent compound to the nitrogen atoms at 1,3-positions of the thymidine, can also be used as the labeled thymidine.

[5] = tested on: jejunum, basal layer of the intestinal mucosa; experiment: [2-^14C] thymidine injected into exposed jejunum, semi-microautoradiograph; assay type: in vivo, Wistar rat; details: 5 μCi injected into exposed jejunum, 5 minutes
Protocol: The specimen used was the jejunum from a healthy 7-week old Wistar rat, male. Under ethyl ether anesthesia, the abdomen was opened to expose the jejunum, which was marked with methylene blue. […] Frozen sections were prepared with a microtome, and a semi-microautoradiographs were obtained.

[6] = BALB/c, mouse, in vivo
Protocol: The back of BALB/c nude mice was inoculated with a 10^7 Hu09 cells (human osteosarcoma) grown in culture. 3 weeks later, animals with granulation tissue with a collagen layer were submitted for the experiment. […] 50 μm thick whole body sections cut longitudinally were prepared using a Leica Macrocut. The sections were stored in a sealed container and lyophilized. The dried sections in contact with a Fuji imaging plate were exposed in a dark box, and the IP was then processed with the Fuji BAS2000 analyzer to generate a digital image (FIG. 1).
The specimen was then placed in contact with IP, and 16 hours later the data was converted into a computer image for analysis.

[7] = 0.5 μCi ^90Y i.v., 1 hr after ^90Y
[8] = 0.5 μCi ^90Y i.v., 6 hr after ^90Y
[9] = 0.5 μCi ^90Y i.v., 24 hr after ^90Y
[10] = 0.5 μCi ^90Y i.v., 48 hr after ^90Y
[11] = 0.5 μCi ^90Y i.v., 72 hr after ^90Y
[12] = 0.5 μCi ^90Y i.v., 168 hr after ^90Y
[13] = 2 μCi ^90Y i.v., 1 hr after ^90Y
[14] = 2 μCi ^90Y i.v., 6 hr after ^90Y
[15] = 2 μCi ^90Y i.v., 24 hr after ^90Y
[16] = 2 μCi ^90Y i.v., 48 hr after ^90Y
[17] = 2 μCi ^90Y i.v., 72 hr after ^90Y
[18] = 2 μCi ^90Y i.v., 168 hr after ^90Y
[19] = 10 μCi ^90Y i.v., 1 hr after ^90Y
[20] = 10 μCi ^90Y i.v., 6 hr after ^90Y
[21] = 10 μCi ^90Y i.v., 24 hr after ^90Y
[22] = 10 μCi ^90Y i.v., 48 hr after ^90Y
[23] = 10 μCi ^90Y i.v., 72 hr after ^90Y
[24] = 10 μCi ^90Y i.v., 168 hr after ^90Y

[Cl][90Y]([Cl])[Cl] [^90Y, ^90YCl3]
accumulation in the skeletal bones, share of the total dose ([1]; 0.5 μCi ^90YCl citrate solution, tail vein, IP images at 10 minutes to 48 hours): ≥ 70%
^90Y remaining in the liver, spleen, and kidney ([1]; 0.5 μCi, tail vein, 24 hours after administration): only a slight residue
localization in skin, digestive tract epithelium, and vascular endothelial cells ([1]; 0.5 μCi, tail vein, image analysis): did not localize
^90Y image at the site of the osteosarcoma HU09 ([1]; whole body autoradiograph, compared with bones): blackened image completely equivalent to the extent seen in the bones
effect of ^90Y radiation on [2-^14C] thymidine incorporation (suppression of mitosis), T (tumor (T); [7]): −
effect of ^90Y radiation on [2-^14C] thymidine incorporation (suppression of mitosis), T (tumor (T); [8]): −
effect of ^90Y radiation on [2-^14C] thymidine incorporation (suppression of mitosis), T (tumor (T); [9]): −
effect of ^90Y radiation on [2-^14C] thymidine incorporation (suppression of mitosis), T (tumor (T); [10]): +
effect of ^90Y radiation on [2-^14C] thymidine incorporation (suppression of mitosis), T (tumor (T); [11]): +
effect of ^90Y radiation on [2-^14C] thymidine incorporation (suppression of mitosis), T (tumor (T); [12]): ±
effect of ^90Y radiation on [2-^14C] thymidine incorporation (suppression of mitosis), T (tumor (T); [13]): −
effect of ^90Y radiation on [2-^14C] thymidine incorporation (suppression of mitosis), T (tumor (T); [14]): +
effect of ^90Y radiation on [2-^14C] thymidine incorporation (suppression of mitosis), T (tumor (T); [15]): ++
effect of ^90Y radiation on [2-^14C] thymidine incorporation (suppression of mitosis), T (tumor (T); [16]): ++
effect of ^90Y radiation on [2-^14C] thymidine incorporation (suppression of mitosis), T (tumor (T); [17]): ++
effect of ^90Y radiation on [2-^14C] thymidine incorporation (suppression of mitosis), T (tumor (T); [18]): +
effect of ^90Y radiation on [2-^14C] thymidine incorporation (suppression of mitosis), T (tumor (T); [19]): ±
effect of ^90Y radiation on [2-^14C] thymidine incorporation (suppression of mitosis), T (tumor (T); [20]): ++
effect of ^90Y radiation on [2-^14C] thymidine incorporation (suppression of mitosis), T (tumor (T); [21]): +++
effect of ^90Y radiation on [2-^14C] thymidine incorporation (suppression of mitosis), T (tumor (T); [22]): +++
effect of ^90Y radiation on [2-^14C] thymidine incorporation (suppression of mitosis), T (tumor (T); [23]): +++
effect of ^90Y radiation on [2-^14C] thymidine incorporation (suppression of mitosis), T (tumor (T); [24]): +++
effect of ^90Y radiation on [2-^14C] thymidine incorporation (suppression of mitosis), m [2, 7]: −
effect of ^90Y radiation on [2-^14C] thymidine incorporation (suppression of mitosis), m [2, 8]: −
effect of ^90Y radiation on [2-^14C] thymidine incorporation (suppression of mitosis), m [2, 9]: −
effect of ^90Y radiation on [2-^14C] thymidine incorporation (suppression of mitosis), m [2, 10]: −
effect of ^90Y radiation on [2-^14C] thymidine incorporation (suppression of mitosis), m [2, 11]: −
effect of ^90Y radiation on [2-^14C] thymidine incorporation (suppression of mitosis), m [2, 12]: −
effect of ^90Y radiation on [2-^14C] thymidine incorporation (suppression of mitosis), m [2, 13]: −
effect of ^90Y radiation on [2-^14C] thymidine incorporation (suppression of mitosis), m [2, 14]: −
effect of ^90Y radiation on [2-^14C] thymidine incorporation (suppression of mitosis), m [2, 15]: −
effect of ^90Y radiation on [2-^14C] thymidine incorporation (suppression of mitosis), m [2, 16]: −
effect of ^90Y radiation on [2-^14C] thymidine incorporation (suppression of mitosis), m [2, 17]: −
effect of ^90Y radiation on [2-^14C] thymidine incorporation (suppression of mitosis), m [2, 18]: −
effect of ^90Y radiation on [2-^14C] thymidine incorporation (suppression of mitosis), m [2, 19]: −
effect of ^90Y radiation on [2-^14C] thymidine incorporation (suppression of mitosis), m [2, 20]: −
effect of ^90Y radiation on [2-^14C] thymidine incorporation (suppression of mitosis), m [2, 21]: −
effect of ^90Y radiation on [2-^14C] thymidine incorporation (suppression of mitosis), m [2, 22]: −
effect of ^90Y radiation on [2-^14C] thymidine incorporation (suppression of mitosis), m [2, 23]: −
effect of ^90Y radiation on [2-^14C] thymidine incorporation (suppression of mitosis), m [2, 24]: −
effect of ^90Y radiation on [2-^14C] thymidine incorporation (suppression of mitosis), B (bone marrow (B); [7]): −
effect of ^90Y radiation on [2-^14C] thymidine incorporation (suppression of mitosis), B (bone marrow (B); [8]): −
effect of ^90Y radiation on [2-^14C] thymidine incorporation (suppression of mitosis), B (bone marrow (B); [9]): −
effect of ^90Y radiation on [2-^14C] thymidine incorporation (suppression of mitosis), B (bone marrow (B); [10]): +
effect of ^90Y radiation on [2-^14C] thymidine incorporation (suppression of mitosis), B (bone marrow (B); [11]): +
effect of ^90Y radiation on [2-^14C] thymidine incorporation (suppression of mitosis), B (bone marrow (B); [12]): ±
effect of ^90Y radiation on [2-^14C] thymidine incorporation (suppression of mitosis), B (bone marrow (B); [13]): −
effect of ^90Y radiation on [2-^14C] thymidine incorporation (suppression of mitosis), B (bone marrow (B); [14]): +
effect of ^90Y radiation on [2-^14C] thymidine incorporation (suppression of mitosis), B (bone marrow (B); [15]): ++
effect of ^90Y radiation on [2-^14C] thymidine incorporation (suppression of mitosis), B (bone marrow (B); [16]): ++
effect of ^90Y radiation on [2-^14C] thymidine incorporation (suppression of mitosis), B (bone marrow (B); [17]): ++
effect of ^90Y radiation on [2-^14C] thymidine incorporation (suppression of mitosis), B (bone marrow (B); [18]): +
effect of ^90Y radiation on [2-^14C] thymidine incorporation (suppression of mitosis), B (bone marrow (B); [19]): ±
effect of ^90Y radiation on [2-^14C] thymidine incorporation (suppression of mitosis), B (bone marrow (B); [20]): ++
effect of ^90Y radiation on [2-^14C] thymidine incorporation (suppression of mitosis), B (bone marrow (B); [21]): +++
effect of ^90Y radiation on [2-^14C] thymidine incorporation (suppression of mitosis), B (bone marrow (B); [22]): +++
effect of ^90Y radiation on [2-^14C] thymidine incorporation (suppression of mitosis), B (bone marrow (B); [23]): +++
effect of ^90Y radiation on [2-^14C] thymidine incorporation (suppression of mitosis), B (bone marrow (B); [24]): +++
level that showed cytotoxic effects near the sites of ^90Y deposition (bone marrow (B); bone / bone marrow): about 5 μCi/25 g
activity of the lymphocytes in the bone marrow to degrade [2-^14C] thymidine (bone marrow (B); first group, 0.5 μCi administration): only a slight decrease

Cc1cn([C@H]2C[C@H](O)[C@@H](CO)O2)c(=O)[nH]c1=O [[2-^14C] thymidine]
incorporation in the basal layer of the intestinal tract mucosa (semi-microautoradiograph) [3]: substantially darkened images
time after administration within which thymidine is utilized (S phase) [4]: ≤ 3 min
incorporation in the basal layer of the intestinal mucosa (semi-microautoradiograph) [5]: darkened images were clearly recorded
time to incorporation into DNA after injection [6]: less than 3 minutes
time by which the ^14C component is completely excreted out of other areas, except the bone and bone marrow ([6]; iv): ≤ 1 h
